Read-outs that look alike come from different tables or passages of the source.

Series [1] relates to volunteers. Kind of series: Oral administration of ex-vivo synthesized J-Factor to 11 volunteers, physical changes observed. To be noted: 0.5 mg per 10 days (=1.5 mg/month), observed in each volunteer. The method, then:
(§1) In one of the embodiment of the present invention L-arginine was chemically converted into J-Factor ex-vivo. Thus converted/synthetic produced ex-vivo J-Factor was orally administrated to a small group of 11 volunteers. Each volunteers were given 0.5 mg per 10 days (=1.5 mg/month) and photographs were taken in each case at the beginning and end of the trial to record the changes in their faces and heads.
These changes indicate that ex-vivo synthesized J-Factor functioned like GH and autocrine-paracrine IGF-1 and also stimulated IGF-1 production.

In series [2] the test system is volunteers. The series can be described thus: Comparison of synthetic J-Factor and biosynthetic GH: complications, diabetogenicity, antigenicity. It counts as in vivo. On the procedure:
as §1
In fact all of the above mentioned changes help in preventing or limiting the aging signs. The advantage of using ex-vivo synthesized J-Factor of the present invention when compared to biosynthetic GH is shown in the comparative table below: […]

Series [3] deals with volunteers. To be noted: biosynthetic GH, intra muscular administration, 3 time a week; stated as common knowledge; cited from earlier work.
[4] abbreviates: comparative table, oral administration 3 times a month, no test described.

`NC(N)=NCCC[C@H](N)C(=O)O` [J-Factor, L-2-amino-5-diaminomethyleneamino-pentanoic acid]: in the series on volunteers [1], the “Eye's central vision” value is “Improvement in eye's central vision”, the “Fatty tissue e.g. in abdomen” value is “A decrease in fatty tissue”, the Hair growth result is “Hair growth” and the Muscular hypertrophy result is on record as “Muscular hypertrophy”. Besides, the “Tone and color of facial skin” value in the series with volunteers [1] is “Improved tone and color of facial skin”. Also, the “Complications (Joint swelling, Carpal tunnel syndrome, Joint pain)” value in the series with volunteers [2] (11 volunteers, oral administration, 3 times a month) was “showed no complications such as Joint”. Moreover, in the series on volunteers [2] (setting [4]), the Antigenicity result was “Non-antigenic” and the Diabetogenicity result was “Non-diabetogenic”.
Take “Biosynthetic GH: biosynthetic Growth Hormone, comparator in the table”: in the series with volunteers [3], the Antigenicity entry was “Antigenic”, the Complications entry is “Joint swelling Carpal tunnel” and the Diabetogenicity result is “Diabetogenic”.

Values taken from patent US20100121105A1, “Composition and Method of synthesizing a biomolecule and its therapeutics applications” (priority 2009, published 2010).
